Results on three molecules are retold here after ChEMBL document CHEMBL4825750, “Evaluation of Elaiophylin extracted from Streptomyces hygroscopicus as a potential inhibitor of the NorA efflux protein in Staphylococcus aureus: An in vitro and in silico approach” (2021).

For test [1], the system named is Staphylococcus aureus. The test can be described thus: Antibacterial activity against Staphylococcus aureus SA-1199B overexpressing NorA incubated for 24 hrs by broth microdilution method. In kind it is functional.
The target of test [2] is T1, Quinolone resistance protein NorA (Staphylococcus aureus) (UniProt P0A0J7).
T1 sequence (whole entry): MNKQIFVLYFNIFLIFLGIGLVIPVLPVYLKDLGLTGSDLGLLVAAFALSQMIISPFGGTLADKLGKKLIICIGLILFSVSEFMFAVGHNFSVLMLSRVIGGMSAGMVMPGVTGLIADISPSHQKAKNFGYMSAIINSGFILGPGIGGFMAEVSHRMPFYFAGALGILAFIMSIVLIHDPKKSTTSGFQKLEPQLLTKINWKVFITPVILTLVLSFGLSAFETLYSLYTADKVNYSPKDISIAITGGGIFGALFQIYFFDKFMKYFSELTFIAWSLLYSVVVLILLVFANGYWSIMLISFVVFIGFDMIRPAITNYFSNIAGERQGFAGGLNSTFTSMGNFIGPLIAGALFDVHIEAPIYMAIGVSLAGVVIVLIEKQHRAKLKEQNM
The test can be described thus: Inhibition of NorA in Staphylococcus aureus SA-1199B assessed as potentiation of ethidium bromide-mediated antibacterial activity by measuring ethidium bromide MIC incubated for 24 hrs by resazurin assay. (The colour change of resazurin is a common sign of viable cells or microbes.)

The subject of test [3] is Staphylococcus aureus. The test can be described thus: Decrease in NorA gene expression in Staphylococcus aureus SA-1199B in combination with norfloxacin by RT-qPCR. The class given is functional. In general terms: Real-time PCR tracks product formation cycle by cycle.
Test [4] deals with T1, Quinolone resistance protein NorA (Staphylococcus aureus). The test can be described thus: Inhibition of NorA in Staphylococcus aureus SA-1199B assessed as potentiation of norfloxacin-mediated antibacterial activity by measuring norfloxacin MIC incubated for 24 hrs by resazurin assay.
The subject of test [5] is Staphylococcus aureus. The test can be described thus: Decrease in NorA gene expression in Staphylococcus aureus SA-1199B by RT-qPCR. In kind it is functional.
Test [6] has as its target T1, Quinolone resistance protein NorA (Staphylococcus aureus). The test can be described thus: Inhibition of NorA in Staphylococcus aureus SA-1199 assessed as potentiation of norfloxacin-mediated antibacterial activity by measuring norfloxacin MIC incubated for 24 hrs by resazurin assay.
Test [7] deals with Staphylococcus aureus. Put plainly: Antibacterial activity against wild-type Staphylococcus aureus SA-1199 incubated for 24 hrs by broth microdilution method. The class given is functional.
The target of test [8] is T1, Quinolone resistance protein NorA (Staphylococcus aureus). Put plainly: Inhibition of NorA in Staphylococcus aureus SA-1199 assessed as potentiation of ethidium bromide-mediated antibacterial activity by measuring ethidium bromide MIC incubated for 24 hrs by resazurin assay.

In brackets after ≈: the same amount, converted by molar mass. Activity calls are given as the source filed them. The rule behind the calls is not given here.

Take `CC[C@@H]1[C@@H](C)O[C@@](O)([C@@H](C)[C@H](O)[C@H](C)[C@H]2OC(=O)/C=C/C=C/[C@H](C)[C@@H]([C@@H](C)[C@@H](O)[C@H](C)[C@@]3(O)C[C@@H](O[C@H]4C[C@H](O)[C@H](O)[C@H](C)O4)[C@H](CC)[C@@H](C)O3)OC(=O)/C=C/C=C/[C@@H]2C)C[C@H]1O[C@H]1C[C@H](O)[C@H](O)[C@H](C)O1`: the MIC with Staphylococcus aureus [1] is 0.5 µg/mL (≈ 0.488 µM); in test [2], 1 µg/mL; in test [4], 1 µg/mL; in test [6], 1 µg/mL; against Staphylococcus aureus [7] it was 0.5 µg/mL (≈ 0.488 µM); in test [8], 1 µg/mL. Further, the result with Staphylococcus aureus [3] and in the test on Staphylococcus aureus [5] was Active.
In the case of `CCn1cc(C(=O)O)c(=O)c2cc(F)c(N3CCNCC3)cc21` [NORFLOXACIN], the MIC was determined as 256 µg/mL (≈ 802 µM) in the test on Staphylococcus aureus [1] and 64 µg/mL (≈ 200 µM) in the test on Staphylococcus aureus [7].
With `N#CC(C#N)=NNc1cccc(Cl)c1`, the MIC in test [2] is 8 µg/mL; in test [4], 8 µg/mL; in test [6] it was 8 µg/mL; in test [8] it was 4 µg/mL.
